Assays:
HCK enzyme = HCK enzyme (Homo sapiens (Human), UniProt P08631); experiment: HCK enzyme inhibition assay (FRET, Z'-LYTE); type: biochemical; conditions: read-out: Enzyme Profile: IC50 Values HCK
HRV16 = experiment: Rhinovirus-titre assay; type: cell-based, human rhinovirus; conditions: Human rhinovirus sp., HRV16; cell not marked b; test compounds 0.04 μg/mL per method (footnote b, 0.2 μg/mL); read-out: HRV titre (inhibitory %): % inhibition observed vs. HRV16 infection control
[1] = test system: IL-8 release in d-U937 cells; experiment: LPS-induced IL-8 release in d-U937 cells; type: cell-based; conditions: Homo sapiens, dU937; d-U937 cells, LPS 0.1 μg/mL, 4 hr; read-out: d-U937 (LPS) IL-8 IC50
Method in brief: (§1)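 U937 cells made macrophage-like by 48–72 h with PMA (100 ng/mL), then stimulated with LPS (E. coli O111:B4) for 4 h. Supernatant TNFα and IL-8 measured by sandwich ELISA; inhibition versus vehicle control at each concentration, REC50 from concentration-response curve.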

p38 MAPK alpha (MAPK14) = p38 MAPK alpha (MAPK14) (Homo sapiens (Human), UniProt Q16539); experiment: Enzyme inhibition assay (FRET, Z-LYTE), p38 MAPK alpha via MAPKAP-K2 activation; type: biochemical; conditions: read-out: Enzyme Profile: IC50 Values p38α
Method in brief: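 Recombinant p38 MAPKα was preincubated with compound 2 hr at RT. Its activity was measured indirectly through MAPKAP-K2 activation/phosphorylation, read by Z-LYTE FRET after 1 hr protease development. Phosphorylation was taken from the coumarin/fluorescein emission ratio.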

[2] = test system: TNFα release in d-U937 cells; experiment: LPS-induced TNFα release in d-U937 cells; type: cell-based; conditions: Homo sapiens, dU937, LPS 0.1 μg/mL, 4 hr, relative to 10 μg/mL BIRB796, read-out: d-U937 (LPS) TNFα REC50
Method in brief: as §1

[3] = test system: ICAM-1 expression in BEAS2B cells; experiment: Poly I:C-induced ICAM-1 induction in BEAS2B cells; type: cell-based; conditions: Homo sapiens, BEAS-2B; BEAS2B cells, poly I:C 1 μg/mL, 18 hr; read-out: BEAS2B (polyIC) ICAM1 IC50
Method in brief: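 Human bronchial epithelial BEAS2B cells pre-incubated 2 hr with test compounds at final concentrations, then transfected with poly I:C (1 μg/mL) using Oligofectamine. Cell-surface ICAM-1 quantified by cell-based ELISA with HRP-conjugated anti-rabbit IgG secondary.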

p38 MAPK γ (MAPK12) = p38 MAPK γ (MAPK12) (Homo sapiens (Human), UniProt P53778); experiment: Enzyme inhibition assay (FRET, Z-LYTE), p38 MAPK gamma; type: biochemical; conditions: read-out: Enzyme Profile: IC50 Values p38γ
Method in brief: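 Recombinant phosphorylated human p38γ preincubated with compound 2 hr at RT in HEPES buffer, then reacted 1 hr with 2 μM FRET peptide and 100 μM ATP. Protease development 1 hr; phosphorylation derived from coumarin/fluorescein emission ratio.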

cSrc enzyme = cSrc enzyme (Homo sapiens (Human), UniProt P12931); experiment: c-SRC enzyme inhibition assay (FRET, Z'-LYTE); type: biochemical; conditions: read-out: Enzyme Profile: IC50 Values cSrc
[4] = test system: TNFα release in THP-1 cells; experiment: LPS-induced TNFα release in THP-1 cells; type: cell-based; conditions: Homo sapiens; THP-1 cells, LPS 3 μg/mL, 4 hr; read-out: THP1 (LPS) TNFα IC50
Procedure: The inhibition of TNFα production was calculated at each concentration by comparison with vehicle control.

[5] = test system: Differentiated U937 cells; experiment: MTT assay: cell viability; type: cell-based, human; conditions: 1 μg/ml; for d-U937 MTT Assay 4 h: 5% FCS; for d-U937 MTT Assay 24 h: 10% FCS
Method in brief: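 Differentiated U937 cells pre-incubated with compound either 4 hr in 5% FCS or 24 h in 10% FCS, then 1 hr MTT. Formazan dissolved in DMSO, absorbance at 550 nm. Percentage viability loss relative to 0.5% DMSO vehicle; apparent increases appear as negative percentages.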

| SMILES | IC50 (HCK enzyme) [nM] | IC50 [1] [nM] | IC50 (p38 MAPK alpha (MAPK14)) [nM] | EC50 [2] [nM] | IC50 (p38 MAPK γ (MAPK12)) [nM] | IC50 (cSrc enzyme) [nM] | IC50 [4] [nM] | inhibition at 0.04 µg/mL (HRV16) [%] | IC50 [3] [nM] | d-U937 MTT Assay 4 h [5] | d-U937 MTT Assay 24 h [5] |
| --- | --- | --- | --- | --- | --- | --- | --- | --- | --- | --- | --- |
| COc1ccc(-n2nc(C(C)(C)C)cc2NC(=O)Nc2ccc(Oc3ccnc4[nH]c(=O)cnc34)c3ccccc23)cc1 [Example 25, 1-(3-(tert-butyl)-1-(4-methoxyphenyl)-1H-pyrazol-5-yl)-3-(4-((3-oxo-3,4-dihydropyrido[2,3-b]pyrazin-8-yl)oxy)naphthalen-1-yl)urea] | 5 | 8.1 | 4 | 1.8 | 50 | 12 | 1.6 | 36 | 8.3 | − (− and + indicate the result is below and above the no significant effect threshold, respectively (<30% inhibition at a concentration of 1 μg/ml)) | − (− and + indicate the result is below and above the no significant effect threshold, respectively (<30% inhibition at a concentration of 1 μg/ml)) |
| Cc1ccc(-n2nc(C3(C)CC3)cc2NC(=O)Nc2ccc(Oc3ccnc4[nH]c(=O)cnc34)c3ccccc23)cc1 [Example 29] | 4 | 6.7 | 5 | 5.6 | 19 | 10 | 17 | 60 | 13 | − (− and + indicate the result is below and above the no significant effect threshold, respectively (<30% inhibition at a concentration of 1 μg/ml)) | − (− and + indicate the result is below and above the no significant effect threshold, respectively (<30% inhibition at a concentration of 1 μg/ml)) |
| CC(C)(C)c1cc(NC(=O)Nc2ccc(Oc3ccnc4[nH]c(=O)cnc34)c3ccccc23)n(-c2ccc(S(C)(=O)=O)cc2)n1 [Example 31, 1-(3-(tert-butyl)-1-(4-(methylsulfonyl)phenyl)-1H-pyrazol-5-yl)-3-(4-((3-oxo-3,4-dihydropyrido[2,3-b]pyrazin-8-yl)oxy)naphthalen-1-yl)urea] | 3 | 68 | 5 | 60 | 47 | 6 | 62 | 8 | 178 | − (− and + indicate the result is below and above the no significant effect threshold, respectively (<30% inhibition at a concentration of 1 μg/ml)) | − (− and + indicate the result is below and above the no significant effect threshold, respectively (<30% inhibition at a concentration of 1 μg/ml)) |
| CSc1ccc(-n2nc(C(C)(C)C)cc2NC(=O)Nc2ccc(Oc3ccnc4[nH]c(=O)cnc34)c3ccccc23)cc1 [Example 33, 1-(3-(tert-butyl)-1-(4-(methylthio)phenyl)-1H-pyrazol-5-yl)-3-(4-((3-oxo-3,4-dihydropyrido[2,3-b]pyrazin-8-yl)oxy)naphthalen-1-yl)urea] | 4 | 9.4 | 5 | 8.2 | 74 | 7 | 13 | 80 | 3.2 | − (− and + indicate the result is below and above the no significant effect threshold, respectively (<30% inhibition at a concentration of 1 μg/ml)) | − (− and + indicate the result is below and above the no significant effect threshold, respectively (<30% inhibition at a concentration of 1 μg/ml)) |

The remaining compounds from weak to strong by IC50 (HCK enzyme), led by results:

| IC50 (HCK enzyme) [nM] | IC50 [1] [nM] | IC50 (p38 MAPK alpha (MAPK14)) [nM] | EC50 [2] [nM] | IC50 (p38 MAPK γ (MAPK12)) [nM] | IC50 (cSrc enzyme) [nM] | IC50 [4] [nM] | SMILES | inhibition at 0.04 µg/mL (HRV16) [%] | IC50 [3] [nM] | d-U937 MTT Assay 4 h [5] | d-U937 MTT Assay 24 h [5] |
| --- | --- | --- | --- | --- | --- | --- | --- | --- | --- | --- | --- |
| 918 | 1.1 | 3 | 1.6 | 237 | 16 | 7.5 | CC(C)(C)c1cc(NC(=O)Nc2ccc(Oc3ccnc4[nH]c(=O)cnc34)c3ccccc23)n(-c2ccc(Cl)cc2)n1 [Example 27, 1-(3-(tert-butyl)-1-(4-chlorophenyl)-1H-pyrazol-5-yl)-3-(4-((3-oxo-3,4-dihydropyrido[2,3-b]pyrazin-8-yl)oxy)naphthalen-1-yl)urea] | 94 | 2.2 | − (− and + indicate the result is below and above the no significant effect threshold, respectively (<30% inhibition at a concentration of 1 μg/ml)) | − (− and + indicate the result is below and above the no significant effect threshold, respectively (<30% inhibition at a concentration of 1 μg/ml)) |
| 9 | 71 | 2 | 40 | > 18000 | 22 | 161 | Cc1ccc(-n2nc(C3CC3)cc2NC(=O)Nc2ccc(Oc3ccnc4[nH]c(=O)cnc34)c3ccccc23)cc1 [Example 28, 1-(3-cyclopropyl-1-(p-tolyl)-1H-pyrazol-5-yl)-3-(4-((3-oxo-3,4-dihydropyrido[2,3-b]pyrazin-8-yl)oxy)naphthalen-1-yl)urea] | 36 | > 184 | − (− and + indicate the result is below and above the no significant effect threshold, respectively (<30% inhibition at a concentration of 1 μg/ml)) | − (− and + indicate the result is below and above the no significant effect threshold, respectively (<30% inhibition at a concentration of 1 μg/ml)) |
